One assay has as its target T1, KV1.4 (Homo sapiens, UniProt P22459).
T1 construct: gene KCNA4; human KCNA4 cDNA in pCMV3, expressed in HEK293T cells
Description: whole-cell patch clamp, persistent current, transfected HEK293T cells. The format is cell-based.

A further assay deals with T2, KV4.2 (Homo sapiens, UniProt Q9NZV8).
T2 construct: gene KCND2
T2 sequence (Q9NZV8 1-630): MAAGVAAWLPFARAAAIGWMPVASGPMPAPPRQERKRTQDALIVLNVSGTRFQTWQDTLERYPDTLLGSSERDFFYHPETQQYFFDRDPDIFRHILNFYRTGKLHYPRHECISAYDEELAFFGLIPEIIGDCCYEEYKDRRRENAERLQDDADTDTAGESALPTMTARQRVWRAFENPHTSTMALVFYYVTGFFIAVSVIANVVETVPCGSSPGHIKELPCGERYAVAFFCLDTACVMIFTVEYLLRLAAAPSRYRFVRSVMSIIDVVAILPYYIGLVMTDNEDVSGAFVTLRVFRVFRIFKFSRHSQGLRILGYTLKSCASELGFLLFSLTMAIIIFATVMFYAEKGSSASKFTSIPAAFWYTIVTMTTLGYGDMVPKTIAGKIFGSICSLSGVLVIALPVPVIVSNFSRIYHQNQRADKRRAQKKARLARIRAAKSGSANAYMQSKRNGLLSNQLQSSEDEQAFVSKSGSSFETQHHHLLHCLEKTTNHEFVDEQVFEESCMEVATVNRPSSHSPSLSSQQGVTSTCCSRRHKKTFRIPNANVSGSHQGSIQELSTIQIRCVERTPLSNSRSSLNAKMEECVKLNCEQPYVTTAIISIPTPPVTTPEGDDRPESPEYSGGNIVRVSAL
The description is as above. The format is cell-based.

T1 sequence (P22459 whole entry): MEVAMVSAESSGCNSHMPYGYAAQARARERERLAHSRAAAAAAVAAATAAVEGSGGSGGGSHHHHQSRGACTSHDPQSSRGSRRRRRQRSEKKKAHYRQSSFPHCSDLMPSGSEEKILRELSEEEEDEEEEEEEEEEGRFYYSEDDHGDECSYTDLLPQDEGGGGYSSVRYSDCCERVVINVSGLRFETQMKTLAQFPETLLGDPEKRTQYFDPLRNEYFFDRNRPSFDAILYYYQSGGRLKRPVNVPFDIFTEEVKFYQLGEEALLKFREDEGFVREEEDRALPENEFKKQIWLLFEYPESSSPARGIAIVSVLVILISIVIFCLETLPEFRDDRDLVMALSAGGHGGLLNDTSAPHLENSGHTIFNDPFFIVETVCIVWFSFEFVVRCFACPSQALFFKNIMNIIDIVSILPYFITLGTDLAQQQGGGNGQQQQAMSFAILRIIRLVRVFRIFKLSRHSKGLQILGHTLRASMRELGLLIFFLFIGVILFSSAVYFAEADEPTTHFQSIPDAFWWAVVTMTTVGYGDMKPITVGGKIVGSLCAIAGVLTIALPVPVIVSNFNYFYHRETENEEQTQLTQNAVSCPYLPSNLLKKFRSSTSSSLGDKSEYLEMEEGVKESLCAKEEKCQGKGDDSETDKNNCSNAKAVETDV

Turning to `O=C(NCc1ccncc1)C12CC3CC(C1)CC(c1ccc(Cl)cc1)(C3)C2` [ABC294640], the IC50 stood at 2.76 ± 0.28 µM against KV1.4 and 4.77 ± 0.68 µM against KV4.2.

The values above are taken from paper PMC7515484, “Sphingosine kinase 2 inhibitor ABC294640 suppresses neuronal excitability and inhibits multiple endogenously and exogenously expressed voltage-gated ion channels in cultured cells” (Channels, 2020).
